Data taken from US8618143B1, “Selective neuronal nitric oxide synthase inhibitors with azole substituents” (Northwestern University, priority 2010, dated 2013).

Experiments:
[1] = pKa of the free azole ring of the side chain; cited from earlier work
iNOS = iNOS (Mus musculus, UniProt P29477); assay: NOS inhibition assay (literature protocols), inducible isoform; type: biochemical; details: for selectivity i/n: ratio KI iNOS / KI nNOS
nNOS = nNOS (Rattus norvegicus, UniProt P29476); assay: NOS inhibition assay (literature protocols), neuronal isoform; type: biochemical; details: for potency (in words): comment on Table 2
From the text: Compounds 3a (not shown, below), 4a, 3c, and 4c were synthesized compounds for purpose of illustration, and 4a, 3c and 4c have been tested using literature protocols. (See, e.g., example 51 of the aforementioned incorporated '790 patent, example 12 of co-pending application Ser. No. 13/250,554 filed Sep. 30, 2011, also incorporated herein by reference in its entirety and, respectively, the references cited therein.) The activities are shown in Table 2.

eNOS = eNOS (Bos taurus, UniProt P29473); assay: NOS inhibition assay (literature protocols), endothelial isoform; type: biochemical; details: for selectivity e/n: ratio KI eNOS / KI nNOS

Ki (iNOS) [µM] | selectivity i/n (iNOS) | Ki (nNOS) [µM] | potency (in words) (nNOS) | Ki (eNOS) [µM] | selectivity e/n (eNOS) | Structure (SMILES) | approximate ring pKa [1]
 |  |  |  |  |  | Cn1cnc(CCN)c1 [Compound 5g] | >7.1
 |  |  |  |  |  | NCCc1nccs1 [Compound 5c] | 2.5
 |  |  |  |  |  | Cn1cncc1CCN [Compound 5f] | >7.1
34.4 | 782 | 0.044 | moderate potency | 9.81 | 223 | Cc1cc(N)nc(C[C@H]2CNC[C@H]2OCCNCCc2nccs2)c1 [Compound 4c] | 
 |  |  |  |  |  | NCCc1c[nH]cn1 [Compound 5a] | 7.1
15 | 12.7 | 1.18 | moderate potency | 4.23 | 3.58 | Cc1cc(N)nc(C[C@H]2CNC[C@H]2OCCNCCc2c[nH]cn2)c1 [Compound 4a] | 
23.1 | 32.3 | 0.716 | highly potent | 0.058 | 0.081 | Cc1cc(N)nc(C[C@@H]2CNC[C@@H]2OCCNCCc2nccs2)c1 [Compound 3c] | 
 |  |  |  |  |  | NCCn1ccnc1 [Compound 5e] | >7.1
